≈ marks a conversion by molar mass, not a printed value.
Experiments:
Assay type in all cases: functional
[1] = test system: Staphylococcus aureus; assay: Antibacterial activity against Staphylococcus aureus ATCC 25923
[2] = test system: Staphylococcus epidermidis; assay: Antibacterial activity against Staphylococcus epidermidis
[3] = test system: Escherichia coli; assay: Antibacterial activity against Escherichia coli ATCC 25922
[4] = test system: Pseudomonas aeruginosa; assay: Antibacterial activity against Pseudomonas aeruginosa ATCC 27853
[5] = test system: Klebsiella pneumoniae; assay: Antibacterial activity against Klebsiella pneumoniae
[6] = test system: Staphylococcus aureus; assay: Ratio MIC for ceftazidime to compound MIC for Staphylococcus aureus ATCC 25923
[7] = test system: Pseudomonas aeruginosa; assay: Ratio MIC for ceftazidime to compound MIC for Pseudomonas aeruginosa ATCC 27853

Compound | MIC [1] [µg/mL] | MIC [2] [µg/mL] | MIC [3] [µg/mL] | MIC [4] [µg/mL] | MIC [5] [µg/mL] | Ratio [6] | Ratio [7]
CO/N=C(\C(=O)N[C@@H]1C(=O)N2C(C(=O)O)=C(CSc3nncs3)OC[C@H]12)c1nsc(N)n1 | 64 (≈ 128 µM) | 16 (≈ 32.1 µM) | 64 (≈ 128 µM) | 32 (≈ 64.2 µM) | 8 (≈ 16 µM) | – | –
CCO/N=C(\C(=O)N[C@@H]1C(=O)N2C(C(=O)O)=C(CSc3nncs3)OC[C@H]12)c1nsc(N)n1 | 64 (≈ 125 µM) | 128 (≈ 250 µM) | 128 (≈ 250 µM) | 128 (≈ 250 µM) | 128 (≈ 250 µM) | – | –
CC(C)O/N=C(\C(=O)N[C@@H]1C(=O)N2C(C(=O)O)=C(CSc3nncs3)OC[C@H]12)c1nsc(N)n1 | 32 (≈ 60.8 µM) | 1 (≈ 1.9 µM) | 128 (≈ 243 µM) | 4 (≈ 7.6 µM) | 1 (≈ 1.9 µM) | – | –
CCCCCO/N=C(\C(=O)N[C@@H]1C(=O)N2C(C(=O)O)=C(CSc3nncs3)OC[C@H]12)c1nsc(N)n1 | 64 (≈ 115 µM) | 64 (≈ 115 µM) | 128 (≈ 231 µM) | 16 (≈ 28.8 µM) | 32 (≈ 57.7 µM) | – | –
CC(C)CCO/N=C(\C(=O)N[C@@H]1C(=O)N2C(C(=O)O)=C(CSc3nncs3)OC[C@H]12)c1nsc(N)n1 | 128 (≈ 231 µM) | 128 (≈ 231 µM) | 128 (≈ 231 µM) | 128 (≈ 231 µM) | 128 (≈ 231 µM) | – | –
Nc1nc(/C(=N/OC2CCCC2)C(=O)N[C@@H]2C(=O)N3C(C(=O)O)=C(CSc4nncs4)OC[C@H]23)ns1 | 128 (≈ 232 µM) | 8 (≈ 14.5 µM) | 128 (≈ 232 µM) | 16 (≈ 29 µM) | 4 (≈ 7.24 µM) | – | –
Nc1nc(/C(=N/OC2CCCCC2)C(=O)N[C@@H]2C(=O)N3C(C(=O)O)=C(CSc4nncs4)OC[C@H]23)ns1 | 128 (≈ 226 µM) | 16 (≈ 28.2 µM) | 128 (≈ 226 µM) | 16 (≈ 28.2 µM) | 16 (≈ 28.2 µM) | – | –
CO/N=C(\C(=O)N[C@@H]1C(=O)N2C(C(=O)O)=C(CSc3nnnn3CCO)OC[C@H]12)c1nsc(N)n1 | 0.5 (≈ 0.95 µM) | 16 (≈ 30.4 µM) | 2 (≈ 3.8 µM) | 16 (≈ 30.4 µM) | 32 (≈ 60.8 µM) | 4 | –
CCO/N=C(\C(=O)N[C@@H]1C(=O)N2C(C(=O)O)=C(CSc3nnnn3CCO)OC[C@H]12)c1nsc(N)n1 | 0.5 (≈ 0.925 µM) | 0.125 (≈ 0.231 µM) | 2 (≈ 3.7 µM) | 64 (≈ 118 µM) | 64 (≈ 118 µM) | – | –
CC(C)O/N=C(\C(=O)N[C@@H]1C(=O)N2C(C(=O)O)=C(CSc3nnnn3CCO)OC[C@H]12)c1nsc(N)n1 | 0.5 (≈ 0.902 µM) | 0.125 (≈ 0.225 µM) | 0.5 (≈ 0.902 µM) | 8 (≈ 14.4 µM) | 32 (≈ 57.7 µM) | – | –
CCCCCO/N=C(\C(=O)N[C@@H]1C(=O)N2C(C(=O)O)=C(CSc3nnnn3CCO)OC[C@H]12)c1nsc(N)n1 | 16 (≈ 27.5 µM) | 0.125 (≈ 0.215 µM) | 8 (≈ 13.7 µM) | 4 (≈ 6.87 µM) | 32 (≈ 54.9 µM) | – | 2
CC(C)CCO/N=C(\C(=O)N[C@@H]1C(=O)N2C(C(=O)O)=C(CSc3nnnn3CCO)OC[C@H]12)c1nsc(N)n1 | 4 (≈ 6.87 µM) | 0.125 (≈ 0.215 µM) | 16 (≈ 27.5 µM) | 8 (≈ 13.7 µM) | 64 (≈ 110 µM) | – | 2
Nc1nc(/C(=N/OC2CCCC2)C(=O)N[C@@H]2C(=O)N3C(C(=O)O)=C(CSc4nnnn4CCO)OC[C@H]23)ns1 | 1 (≈ 1.72 µM) | 0.125 (≈ 0.215 µM) | 4 (≈ 6.89 µM) | 2 (≈ 3.44 µM) | 8 (≈ 13.8 µM) | – | 2
Nc1nc(/C(=N/OC2CCCCC2)C(=O)N[C@@H]2C(=O)N3C(C(=O)O)=C(CSc4nnnn4CCO)OC[C@H]23)ns1 | 2 (≈ 3.36 µM) | 64 (≈ 108 µM) | 32 (≈ 53.8 µM) | 64 (≈ 108 µM) | 128 (≈ 215 µM) | – | –
CC(C)(O/N=C(\C(=O)N[C@@H]1C(=O)N2C(C(=O)[O-])=C(C[n+]3ccccc3)CS[C@H]12)c1csc(N)n1)C(=O)O [CEFTAZIDIME] | 2 (≈ 3.66 µM) | 16 (≈ 29.3 µM) | 4 (≈ 7.32 µM) | 16 (≈ 29.3 µM) | 32 (≈ 58.5 µM) | – | –
